Data published in patent publication US20260297080A1, “BICYCLIC COMPOUNDS AS CDK INHIBITORS” (BeOne Medicines I GmbH, priority 2022, published 2026).

Experiments:
CDK2/Cyclin E1 = CDK2/Cyclin E1 (Homo sapiens, UniProt P24941); assay: CDK2/Cyclin E1 Biochemical Assay (TR-FRET), 0.060 mM ATP; conditions: 0.15 μM Rb (Ser780)-biotin substrate, pH7.0, 60 min preincubation, 120 min reaction, room temperature
Procedure: (§1) CDK2/Cyclin E1 and CDK1/Cyclin B1 Biochemical Assays
(§2) Compounds disclosed herein were tested for inhibition of CDK2/Cyclin E1 or CDK1/Cyclin B1 kinase in an assay based on the time-resolved fluorescence-resonance energy transfer (TR-FRET) methodology. The assay was carried out in 384-well low volume black plates in a reaction mixture containing CDK2/Cyclin E1 or CDK1/Cyclin B1, 0.060 mM ATP for CDK2/Cyclin E1 or 0.015 mM ATP for CDK1/Cyclin B1, 0.15 μM Rb (Ser780)-biotin substrate and 0-10 μM compound in buffer containing 50 mM HEPES pH7.0, 0.02% NaN3, 0.01% BSA, 0.1 mM Orthovanadate, 50 mM MgCl2, 1 mM DTT and 0.005% Tween-20. The kinase was incubated with compound for 60 minutes at room temperature and the reaction was initiated by the addition of ATP and Rb (Ser780)-biotin substrate. After reaction at room temperature for 120 minutes, an equal volume of stop/detection solution was added according to the manufacture's instruction (Cisbio Bioassays). The stop/detection solution contained Streptavidin-XL665 and Anti-pRb (Ser780) mAb-Eu Cryptate in Detection buffer (Cisbio Bioassays). Plates were incubated at room temperature for 60 minutes, and the TR-FRET signals (ex337 nm, em665 nm/620 nm) were recorded on a PHERAstar FSX plate reader (BMG Labtech). The inhibition percentage of CDK2/Cyclin E1 or CDK1/Cyclin B1 kinase activity in presence of increasing concentrations of compounds was calculated based on the ratio of fluorescence at 665 nm to that at 620 nm. The IC50 for each compound was derived from fitting the data to the four-parameter logistic equation by Dotmatics.

CDK1/Cyclin B1 = CDK1/Cyclin B1 (Homo sapiens, UniProt P06493); assay: CDK1/Cyclin B1 Biochemical Assay (TR-FRET), 0.015 mM ATP; conditions: 0.15 μM Rb (Ser780)-biotin substrate, pH7.0, 60 min preincubation, 120 min reaction, room temperature
Chain of CDK1/Cyclin B1 (P06493 whole entry): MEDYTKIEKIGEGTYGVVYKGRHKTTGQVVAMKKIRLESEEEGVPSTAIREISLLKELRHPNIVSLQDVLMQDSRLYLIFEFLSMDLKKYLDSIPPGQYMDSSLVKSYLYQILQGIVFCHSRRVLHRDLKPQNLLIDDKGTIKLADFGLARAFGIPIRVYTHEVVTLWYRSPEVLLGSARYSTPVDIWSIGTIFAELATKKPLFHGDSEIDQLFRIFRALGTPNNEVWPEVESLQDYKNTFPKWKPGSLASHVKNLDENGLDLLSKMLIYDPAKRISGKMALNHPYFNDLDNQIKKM
Chain of CDK1/Cyclin B1 (P14635 whole entry partner): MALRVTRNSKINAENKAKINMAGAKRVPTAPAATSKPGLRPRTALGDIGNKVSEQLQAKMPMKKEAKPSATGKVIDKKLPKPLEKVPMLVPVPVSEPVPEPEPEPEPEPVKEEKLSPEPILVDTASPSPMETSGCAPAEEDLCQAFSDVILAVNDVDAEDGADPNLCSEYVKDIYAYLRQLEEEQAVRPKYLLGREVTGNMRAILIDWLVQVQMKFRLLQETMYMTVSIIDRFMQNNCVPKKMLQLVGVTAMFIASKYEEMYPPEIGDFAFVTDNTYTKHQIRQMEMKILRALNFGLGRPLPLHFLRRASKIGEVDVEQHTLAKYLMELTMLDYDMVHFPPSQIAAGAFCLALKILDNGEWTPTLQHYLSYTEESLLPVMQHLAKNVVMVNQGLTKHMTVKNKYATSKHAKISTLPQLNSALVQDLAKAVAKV
Procedure: as §1, §2

| IC50 (CDK2/Cyclin E1) | IC50 (CDK1/Cyclin B1) | Structure (SMILES) |
| --- | --- | --- |
| 15 nM | 374 nM | CCCNC(=O)O[C@H]1CC[C@@H](c2cc(Nc3ccc4c(c3Cl)CNS4(=O)=O)n[nH]2)C1 (racemic) [Example 39, cis-3-(3-((4-chloro-1,1-dioxido-2,3-dihydrobenzo[d]isothiazol-5-yl)amino)-1H-pyrazol-5-yl)cyclopentyl propylcarbamate] |
| 2.3 nM | 154 nM | CC1(NC(=O)O[C@H]2CC[C@@H](c3cc(Nc4ccc5c(c4Cl)CNS5(=O)=O)n[nH]3)C2)CC1 (racemic) [Example 40, cis-3-(3-((4-chloro-1,1-dioxido-2,3-dihydrobenzo[d]isothiazol-5-yl)amino)-1H-pyrazol-5-yl)cyclopentyl(1-methylcyclopropyl)carbamate] |
| 9.6 nM | 431 nM | CC[C@H](C)NC(=O)O[C@H]1CC[C@@H](c2cc(Nc3ccc4c(c3F)CN(C3CC3)S4(=O)=O)n[nH]2)C1 (racemic) [Example 117, cis-3-(3-((2-cyclopropyl-4-fluoro-1,1-dioxido-2,3-dihydrobenzo[d]isothiazol-5-yl)amino)-1H-pyrazol-5-yl)cyclopentyl((S)-sec-butyl)carbamate] |
| 3.1 nM | 345 nM | CCCNC(=O)O[C@H]1CC[C@@H](c2cc(Nc3ccc4c(c3F)CN(C3CC3)S4(=O)=O)n[nH]2)C1 (racemic) [Example 118, cis-3-(3-((2-cyclopropyl-4-fluoro-1,1-dioxido-2,3-dihydrobenzo[d]isothiazol-5-yl)amino)-1H-pyrazol-5-yl)cyclopentyl propylcarbamate] |
| 2.7 nM | 146 nM | CC1(NC(=O)O[C@H]2CC[C@@H](c3cc(Nc4ccc5c(c4F)CN(C4CC4)S5(=O)=O)n[nH]3)C2)CC1 (racemic) [Example 119, cis-3-(3-((2-cyclopropyl-4-fluoro-1,1-dioxido-2,3-dihydrobenzo[d]isothiazol-5-yl)amino)-1H-pyrazol-5-yl)cyclopentyl(1-methylcyclopropyl)carbamate] |
| 1.8 nM | 98 nM | CC1(NC(=O)O[C@H]2CC[C@@H](c3cc(Nc4ccc5c(c4F)CN(CCO)S5(=O)=O)n[nH]3)C2)CC1 (racemic) [Example 128, cis-3-(3-((4-fluoro-2-(2-hydroxyethyl)-1,1-dioxido-2,3-dihydrobenzo[d]isothiazol-5-yl)amino)-1H-pyrazol-5-yl)cyclopentyl(1-methylcyclopropyl)carbamate] |
| 1.6 nM | 104 nM | [2H]C([2H])([2H])N1Cc2c(ccc(Nc3cc([C@H]4CC[C@@H](OC(=O)NC5(C)CC5)C4)[nH]n3)c2F)S1(=O)=O (racemic) [Example 132, cis-3-(3-((4-fluoro-2-(methyl-d3)-1,1-dioxido-2,3-dihydrobenzo[d]isothiazol-5-yl)amino)-1H-pyrazol-5-yl)cyclopentyl(1-methylcyclopropyl)carbamate] |
| 1.7 nM | 333 nM | O=C(NCCC(F)(F)F)O[C@H]1CC[C@@H](c2cc(Nc3ccc4c(c3F)CNS4(=O)=O)n[nH]2)C1 (racemic) [Example 154, cis-3-(3-((4-fluoro-1,1-dioxido-2,3-dihydrobenzo[d]isothiazol-5-yl)amino)-1H-pyrazol-5-yl)cyclopentyl(3,3,3-trifluoropropyl)carbamate] |
| 3.1 nM | 123 nM | COCC1(NC(=O)O[C@H]2CC[C@@H](c3cc(Nc4ccc5c(c4F)CNS5(=O)=O)n[nH]3)C2)CC1 (racemic) [Example 158, cis-3-(3-((4-fluoro-1,1-dioxido-2,3-dihydrobenzo[d]isothiazol-5-yl)amino)-1H-pyrazol-5-yl)cyclopentyl(1-(methoxymethyl)cyclopropyl)carbamate] |
| – | 18 nM | CC(C)NC(=O)O[C@H]1CC[C@@H](c2cc(Nc3ccc4c(c3F)CS(=O)(=O)C4)n[nH]2)C1 (relative stereo) [Example 317, cis-3-(3-((4-fluoro-2,2-dioxido-1,3-dihydrobenzo[c]thiophen-5-yl)amino)-1H-pyrazol-5-yl)cyclopentyl isopropylcarbamate] |
